In patent publication US12403112B2, “Agent for preventing, ameliorating, or treating periodontal disease” (WAKUNAGA PHARMACEUTICAL CO., LTD., priority 2019, dated 2025):

How the values were obtained:
Assay type in all cases: cell-based
[1] = system: LL-37 gene in human gingival epithelial Ca9-22 cells; experiment: Effect of promoting expression of LL-37 gene (quantitative real-time PCR); conditions: treatment for 24 hours, absence of HKPG, compared to untreated, FIG. 1
Method: (§1) Test solutions for evaluating the biological activities were prepared as follows. In evaluating the biological activities, all test solutions were prepared at the time of use. • (a) Approximately 1 mg of SAC and S1PC (cis:trans=15:85) were each precisely weighed and dissolved in 0.6 mL of purified water (10 mM). This solution was used as a stock solution and diluted appropriately to be subjected to the test. • (b) SAMC was dissolved in a culture medium for cell culture (containing 10% bovine serum albumin, […] penicillin, and 100 μg/mL streptomycin) (1 mM). This solution was used as a stock solution and diluted to be subjected to the test. (2) Cells for Evaluation Test
Test cells (human gingival epithelial Ca9-22 cells) were purchased from the National Institute of Biomedical Innovation, Health and Nutrition. […]
(§2) Using a reverse transcription kit (PrimeScript RT reagent kit with gDNA Eraser, RR047A, TAKARA), degradation of DNA remaining in total RNA and reverse transcription reaction from RNA to complementary DNA (cDNA) were carried out. Next, cDNA derived from the target gene was amplified by quantitative real-time polymerase chain reaction (PCR) using primers specific for LL-37 or hBD3 gene. The relative expression levels of LL-37 and hBD3 genes were calculated using beta-actin as an internal reference gene.

[2] = system: hBD3 gene in human gingival epithelial Ca9-22 cells; experiment: Effect of promoting expression of hBD3 gene (quantitative real-time PCR)
Method: as §1
Test cells (human gingival epithelial Ca9-22 cells) were purchased from the National Institute of Biomedical Innovation, Health and Nutrition. Immediately after purchasing, the culturing was initiated (5% CO2, 37° C.) Subculturing was carried out two or three times per week.
The Ca9-22 cells were prepared to 1×10^5 cells/mL in a 10% serum-containing medium, seeded in a 12-well plate at 1 mL respectively, and cultured for 24-48 hours. Assay was carried out when the percentage of cells in each well reached nearly 100%. In the presence or absence of heat-sterilized Porphyromonas gingivalis (HKPG), a reagent was added and the culturing was continued for 24 hours. After completion of culturing, the culture supernatant was removed and […] was added, followed by treatment at room temperature for 5 minutes. RIPA buffer was collected from each well into tubes and chloroform was added (40 μL/tube), followed by treatment at room temperature for 2-3 minutes. After centrifugation (13,000 g, 5 min, 4° C.), the supernatant was transferred to a new tube and 2-propanol was added thereto (80 μL/tube), followed by treatment at room temperature for 10 minutes. After centrifugation (13,000 g, 10 min, 4° C.), the supernatant was removed, and 75% ethanol was added to the precipitate (200 μL/tube), and further centrifugation (13,000 g, 10 min, 4° C.) was carried out. After centrifugation (13,000 g, 10 min, 4° C.), the supernatant was removed, and the dried precipitate (total RNA) was dissolved in sterile water and cryopreserved at −80° C. until use.
as §2

[3] = system: ICAM-1 protein in human gingival epithelial Ca9-22 cells; experiment: Effect of down-regulating expression of ICAM-1 induced by TNF-α (Western blot); conditions: co-treatment with TNF-α, 24 hours, FIG. 3
Method: Test solutions for evaluating the biological activities were prepared as follows. In evaluating the biological activities, all test solutions were prepared at the time of use. • (a) Approximately 1 mg of SAC and […] (cis:trans=15:85) were each precisely weighed and dissolved in 0.6 mL of purified water (10 mM). This solution was used as a stock solution and diluted appropriately to be subjected to the test. • (b) SAMC was dissolved in a culture medium for cell culture (containing 10% bovine serum albumin, […] penicillin, and 100 μg/mL streptomycin) (1 mM). This solution was used as a stock solution and diluted to be subjected to the test. (2) Cells for Evaluation Test Test cells (human gingival epithelial Ca9-22 cells) were purchased from the National Institute of Biomedical Innovation, Health and Nutrition. Immediately after purchasing, the culturing was initiated (5% CO2, 37° C.) Subculturing was carried out two or three times per week. […] A portion of the above protein supernatant was collected and the total protein concentration was calculated by BCA method. […] After reaction treatment, the proteins were washed with Tris-buffered saline three times, an HRP substrate was added thereto, and the luminescence intensity was detected by a luminoimage analyzer.

[4] = system: IL-6 release from human gingival epithelial Ca9-22 cells; experiment: Effect of reducing release of IL-6 induced by TNF-α (ELISA); conditions: co-treatment with TNF-α, 6 hours, FIGS. 4 and 5
Method: Test solutions for evaluating the biological activities were prepared as follows. In evaluating the biological activities, all test solutions were prepared at the time of use. • (a) Approximately 1 mg of SAC and […] (cis:trans=15:85) were each precisely weighed and dissolved in 0.6 mL of purified water (10 mM). This solution was used as a stock solution and diluted appropriately to be subjected to the test. • (b) SAMC was dissolved in a culture medium for cell culture (containing 10% bovine serum albumin, […] penicillin, and 100 μg/mL streptomycin) (1 mM). This solution was used as a stock solution and diluted to be subjected to the test. (2) Cells for Evaluation Test Test cells (human gingival epithelial Ca9-22 cells) were purchased from the National Institute of Biomedical Innovation, Health and Nutrition. Immediately after purchasing, the culturing was initiated (5% CO2, 37° C.) Subculturing was carried out two or three times per week. […] IL-6 ELISA Ready-SET-Go! Kit was purchased from eBioscience, Inc. to measure the amount of IL-6 produced. […] A horseradish peroxidase (HRP)-labeled secondary antibody and chromogenic substrate were added thereto and then the absorbance was measured by using a plate reader. […] After completion of culturing, the supernatant was collected and the concentration of IL-6 was measured by ELISA.

[5] = 300 μM, presence of 10^7/mL HKPG (heat-sterilized Porphyromonas gingivalis), FIG. 2
[6] = treatment for 24 hours, absence of HKPG

SMILES	expression level of LL-37 gene [1]	expression level of hBD3 gene [2, 5]	expression level of hBD3 gene [2, 6]	expression of ICAM-1 protein induced by TNF-α [3]	amount of released IL-6 induced by TNF-α [4]
CC=CSC[C@H](N)C(=O)O [S1PC, S-1-propenylcysteine]	significantly increased	significantly increased	no change	concentration-dependently down-regulated	–
C=CCSC[C@H](N)C(=O)O [SAC, S-allylcysteine]	significantly increased	significantly increased	no change	–	concentration-dependently reduced
C=CCSSCC(N)C(=O)O (stereo not drawn) [SAMC, S-allylmercaptocysteine]	–	–	–	–	concentration-dependently reduced
